Active and inactive are the calls of the source. A value given as a limit tells only on which side of the number the result lay.

The target of test [1] is T1, Tyrosine-protein phosphatase non-receptor type 7 (Homo sapiens, UniProt P35236).
T1 sequence (P35236 whole entry): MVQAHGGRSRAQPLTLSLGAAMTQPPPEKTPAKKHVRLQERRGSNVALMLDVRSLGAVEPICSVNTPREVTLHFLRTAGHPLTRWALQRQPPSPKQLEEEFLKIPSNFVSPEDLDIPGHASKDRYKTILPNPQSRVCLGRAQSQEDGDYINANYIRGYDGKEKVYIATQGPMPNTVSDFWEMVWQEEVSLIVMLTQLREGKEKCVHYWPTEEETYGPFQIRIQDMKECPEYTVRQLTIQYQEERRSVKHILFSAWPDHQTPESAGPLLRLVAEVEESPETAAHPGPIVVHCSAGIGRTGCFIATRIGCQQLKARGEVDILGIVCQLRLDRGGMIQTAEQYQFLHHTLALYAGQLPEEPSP
The class given is functional.

Test [2] deals with T2, Tyrosine-protein phosphatase non-receptor type 22 (Homo sapiens, UniProt Q9Y2R2).
T2 sequence (Q9Y2R2 whole entry): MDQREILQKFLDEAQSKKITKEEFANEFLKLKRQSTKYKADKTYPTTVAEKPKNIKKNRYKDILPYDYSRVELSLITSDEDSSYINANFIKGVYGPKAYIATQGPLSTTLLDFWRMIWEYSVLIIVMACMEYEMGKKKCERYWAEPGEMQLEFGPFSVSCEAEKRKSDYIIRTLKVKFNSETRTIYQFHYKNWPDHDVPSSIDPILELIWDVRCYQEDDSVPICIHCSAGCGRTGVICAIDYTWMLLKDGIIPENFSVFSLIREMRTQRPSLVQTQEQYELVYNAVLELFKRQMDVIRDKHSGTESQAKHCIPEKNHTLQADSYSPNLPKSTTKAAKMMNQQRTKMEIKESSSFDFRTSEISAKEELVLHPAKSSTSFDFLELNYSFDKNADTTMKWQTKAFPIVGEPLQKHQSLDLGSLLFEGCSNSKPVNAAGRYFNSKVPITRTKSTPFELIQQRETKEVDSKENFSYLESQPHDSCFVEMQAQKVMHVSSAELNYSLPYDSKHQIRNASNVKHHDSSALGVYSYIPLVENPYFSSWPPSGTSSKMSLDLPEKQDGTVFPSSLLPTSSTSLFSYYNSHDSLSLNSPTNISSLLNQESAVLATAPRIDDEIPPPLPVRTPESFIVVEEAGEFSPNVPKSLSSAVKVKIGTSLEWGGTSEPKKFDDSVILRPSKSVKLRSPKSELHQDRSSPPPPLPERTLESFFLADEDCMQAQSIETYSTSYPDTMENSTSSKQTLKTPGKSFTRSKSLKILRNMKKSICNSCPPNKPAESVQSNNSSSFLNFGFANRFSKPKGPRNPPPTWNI
The class given is functional.

In test [3] the target is T2, Tyrosine-protein phosphatase non-receptor type 22. The class given is functional. This is another data set of the same source.
For the next test, the system named is T-cell. Briefly: loss of vesicle association with mouse CD8+ T cells – mouse 2C CD8+ T cells, flow cytometry, dose response (AID 485284). The class given is functional.
In test [4] the target is Peroxisome proliferator-activated receptor gamma/Nuclear receptor coactivator 3 (Homo sapiens, UniProt P37231). The test is described as follows: TR-FRET dose response biochemical High Throughput Screening assay for agonists of the steroid receptor coactivator 3 (SRC-3) recruitment by the peroxisome proliferator-activated receptor gamma (PPAR gamma): non-selective agonists. [Related pubchem assays: 1301 (Confirmation screen.), 1048 (Primary screen.)]. The format is functional. (In general: Time-resolved FRET reads energy transfer from a long-lived donor to a nearby acceptor.)
Peroxisome proliferator-activated receptor gamma/Nuclear receptor coactivator 3, sequence (P37231 whole entry): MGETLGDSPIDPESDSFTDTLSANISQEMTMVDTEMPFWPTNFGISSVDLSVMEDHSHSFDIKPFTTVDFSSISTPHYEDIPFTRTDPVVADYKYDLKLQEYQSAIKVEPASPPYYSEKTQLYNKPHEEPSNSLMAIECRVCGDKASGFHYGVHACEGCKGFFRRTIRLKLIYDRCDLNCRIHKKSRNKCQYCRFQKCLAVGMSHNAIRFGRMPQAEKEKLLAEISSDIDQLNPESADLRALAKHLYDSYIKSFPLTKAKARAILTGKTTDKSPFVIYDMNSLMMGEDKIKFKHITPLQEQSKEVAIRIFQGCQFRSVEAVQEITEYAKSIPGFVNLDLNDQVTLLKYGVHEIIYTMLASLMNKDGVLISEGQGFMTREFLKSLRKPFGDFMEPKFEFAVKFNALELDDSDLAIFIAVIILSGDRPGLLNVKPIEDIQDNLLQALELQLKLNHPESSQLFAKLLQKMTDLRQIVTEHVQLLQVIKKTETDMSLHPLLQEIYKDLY
Peroxisome proliferator-activated receptor gamma/Nuclear receptor coactivator 3, sequence (Q9Y6Q9 whole entry, further chain): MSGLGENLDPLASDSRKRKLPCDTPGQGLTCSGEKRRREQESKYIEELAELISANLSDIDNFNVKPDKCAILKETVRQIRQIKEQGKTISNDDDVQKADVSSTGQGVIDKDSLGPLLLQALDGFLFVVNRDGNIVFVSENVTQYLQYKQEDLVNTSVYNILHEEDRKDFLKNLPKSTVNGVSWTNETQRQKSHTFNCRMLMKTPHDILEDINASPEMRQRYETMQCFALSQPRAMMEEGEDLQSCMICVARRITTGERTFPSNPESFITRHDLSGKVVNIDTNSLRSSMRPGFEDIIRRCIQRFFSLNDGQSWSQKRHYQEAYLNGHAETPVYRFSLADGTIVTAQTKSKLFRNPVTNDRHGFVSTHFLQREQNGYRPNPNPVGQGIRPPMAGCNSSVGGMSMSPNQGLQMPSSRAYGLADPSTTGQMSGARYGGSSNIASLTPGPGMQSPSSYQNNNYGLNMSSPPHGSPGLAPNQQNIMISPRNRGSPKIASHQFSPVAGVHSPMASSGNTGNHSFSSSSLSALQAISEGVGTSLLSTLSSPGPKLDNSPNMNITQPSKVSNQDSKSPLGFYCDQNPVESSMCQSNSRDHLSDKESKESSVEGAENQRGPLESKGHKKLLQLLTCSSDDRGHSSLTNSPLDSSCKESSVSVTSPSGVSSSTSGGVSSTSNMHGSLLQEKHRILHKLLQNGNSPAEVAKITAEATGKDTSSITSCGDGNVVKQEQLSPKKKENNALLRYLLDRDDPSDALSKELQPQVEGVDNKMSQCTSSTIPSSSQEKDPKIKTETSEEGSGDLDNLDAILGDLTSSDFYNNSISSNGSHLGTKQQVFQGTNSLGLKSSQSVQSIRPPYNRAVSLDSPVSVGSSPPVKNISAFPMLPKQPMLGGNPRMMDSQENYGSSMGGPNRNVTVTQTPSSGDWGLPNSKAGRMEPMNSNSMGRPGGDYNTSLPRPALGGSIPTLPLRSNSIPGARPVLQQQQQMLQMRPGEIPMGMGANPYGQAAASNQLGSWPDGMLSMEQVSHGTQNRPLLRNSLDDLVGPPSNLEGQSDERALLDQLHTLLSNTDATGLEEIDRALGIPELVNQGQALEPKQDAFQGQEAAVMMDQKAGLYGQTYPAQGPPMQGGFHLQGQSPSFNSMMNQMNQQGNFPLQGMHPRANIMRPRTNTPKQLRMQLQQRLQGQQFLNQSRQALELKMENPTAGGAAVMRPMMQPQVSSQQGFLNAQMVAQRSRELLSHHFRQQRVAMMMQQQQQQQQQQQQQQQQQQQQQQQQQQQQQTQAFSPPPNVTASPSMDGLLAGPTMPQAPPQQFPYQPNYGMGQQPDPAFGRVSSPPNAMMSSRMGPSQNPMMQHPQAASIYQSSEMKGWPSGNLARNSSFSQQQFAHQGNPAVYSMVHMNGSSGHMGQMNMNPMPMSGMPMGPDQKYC

Test [5] deals with Peroxisome proliferator-activated receptor gamma/Nuclear receptor coactivator 2 (Homo sapiens, UniProt P37231). Briefly: TR-FRET dose response biochemical High Throughput Screening assay for agonists of the steroid receptor coactivator 2 (SRC-2) recruitment by the peroxisome proliferator-activated receptor gamma (PPAR gamma): non-selective agonists. [Related pubchem assays: 1297, 1032 ]. The format is functional.
Peroxisome proliferator-activated receptor gamma/Nuclear receptor coactivator 2, sequence (P37231 whole entry): as the sequence (P37231 whole entry) above
Peroxisome proliferator-activated receptor gamma/Nuclear receptor coactivator 2, sequence (Q15596 whole entry, further chain): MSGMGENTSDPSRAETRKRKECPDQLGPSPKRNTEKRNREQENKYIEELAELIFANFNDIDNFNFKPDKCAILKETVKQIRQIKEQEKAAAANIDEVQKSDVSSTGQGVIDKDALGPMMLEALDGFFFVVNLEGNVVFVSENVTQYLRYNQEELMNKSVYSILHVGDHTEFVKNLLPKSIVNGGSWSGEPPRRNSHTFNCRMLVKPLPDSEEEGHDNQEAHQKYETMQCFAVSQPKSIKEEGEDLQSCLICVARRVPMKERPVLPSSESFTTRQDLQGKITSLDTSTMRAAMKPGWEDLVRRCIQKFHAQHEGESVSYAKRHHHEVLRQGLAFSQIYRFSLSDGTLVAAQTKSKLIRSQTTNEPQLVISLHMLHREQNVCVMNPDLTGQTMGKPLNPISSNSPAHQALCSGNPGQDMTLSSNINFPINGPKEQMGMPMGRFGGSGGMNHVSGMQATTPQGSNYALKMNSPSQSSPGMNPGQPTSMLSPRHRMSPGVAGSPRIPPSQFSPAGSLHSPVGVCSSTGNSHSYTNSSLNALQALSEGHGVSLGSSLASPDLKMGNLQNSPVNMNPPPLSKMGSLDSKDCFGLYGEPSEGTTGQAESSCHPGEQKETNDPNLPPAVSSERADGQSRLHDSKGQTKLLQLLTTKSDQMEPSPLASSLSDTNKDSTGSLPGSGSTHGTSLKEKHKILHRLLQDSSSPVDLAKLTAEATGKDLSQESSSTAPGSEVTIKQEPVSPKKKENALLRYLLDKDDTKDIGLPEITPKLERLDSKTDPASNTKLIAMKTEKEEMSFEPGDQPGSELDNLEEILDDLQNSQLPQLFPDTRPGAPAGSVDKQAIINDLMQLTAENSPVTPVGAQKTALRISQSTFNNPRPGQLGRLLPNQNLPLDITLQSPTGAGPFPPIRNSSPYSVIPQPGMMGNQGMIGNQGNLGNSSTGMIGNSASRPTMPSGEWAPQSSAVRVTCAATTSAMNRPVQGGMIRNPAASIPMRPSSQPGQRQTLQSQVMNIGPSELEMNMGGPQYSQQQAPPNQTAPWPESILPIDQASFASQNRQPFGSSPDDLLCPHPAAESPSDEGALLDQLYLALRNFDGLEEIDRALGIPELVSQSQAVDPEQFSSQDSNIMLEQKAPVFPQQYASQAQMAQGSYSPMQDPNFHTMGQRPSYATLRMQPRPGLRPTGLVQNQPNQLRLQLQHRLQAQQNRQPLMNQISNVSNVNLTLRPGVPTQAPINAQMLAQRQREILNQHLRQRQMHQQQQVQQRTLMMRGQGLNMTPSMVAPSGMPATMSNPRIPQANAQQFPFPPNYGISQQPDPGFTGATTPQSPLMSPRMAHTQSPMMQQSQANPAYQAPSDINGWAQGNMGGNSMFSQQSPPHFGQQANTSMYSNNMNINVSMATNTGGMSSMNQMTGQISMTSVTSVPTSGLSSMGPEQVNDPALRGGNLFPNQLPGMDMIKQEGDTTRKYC

The target in test [6] is Peroxisome proliferator-activated receptor gamma/Nuclear receptor coactivator 1 (Homo sapiens, UniProt P37231). The test is described as follows: TR-FRET dose response biochemical High Throughput Screening assay for agonists of the steroid receptor coactivator 1 (SRC-1) recruitment by the peroxisome proliferator-activated receptor gamma (PPAR gamma): non-selective agonists. [Related pubchem assays (depositor defined):AID1300, AID1808, AID504735, AID631]. The format is protein assay.

Test [7] has as its target T3, Sphingosine 1-phosphate receptor 4 (Homo sapiens, UniProt O95977).
T3 sequence (O95977 whole entry): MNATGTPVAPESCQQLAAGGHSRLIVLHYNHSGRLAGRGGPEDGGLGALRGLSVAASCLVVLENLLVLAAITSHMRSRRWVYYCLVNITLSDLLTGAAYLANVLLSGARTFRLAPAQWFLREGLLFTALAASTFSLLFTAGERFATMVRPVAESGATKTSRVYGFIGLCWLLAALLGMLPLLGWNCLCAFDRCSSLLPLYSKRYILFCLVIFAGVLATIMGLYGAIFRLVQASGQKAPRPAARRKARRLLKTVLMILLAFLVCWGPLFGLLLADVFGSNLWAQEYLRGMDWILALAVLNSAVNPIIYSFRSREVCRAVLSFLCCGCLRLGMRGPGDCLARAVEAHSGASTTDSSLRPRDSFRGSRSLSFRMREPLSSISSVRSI
Briefly: Late-stage fluorescence dose response cell-based assay to identify agonists of the Sphingosine 1-Phosphate Receptor 4 (S1P4): purchased compounds EC50. [Related pubchem assays (depositor defined):AID1509, AID1523, AID1563, AID1686, AID1701, AID1801]. The format is functional.

The next test addresses Troponin, cardiac muscle (Homo sapiens, UniProt P19429+P45379+P63316). Briefly: Fluorescence-based biochemical high throughput dose response assay for activators of the calcium sensitivity of cardiac Regulated Thin Filaments (RTF). [Related pubchem assays (depositor defined):AID493008, AID493018, AID504382, AID504383]. The class given is protein-complex assay.

For the compound `CSc1nsc(SCC(=O)Nc2cccc(C(C)=O)c2)n1`, the IC50 in [1], in [2] and in test [3] was > 79.4 µM (inactive) throughout. For the compound `COc1ccc(C2=CC(=O)C[C@H](c3ccc4c(c3)OCO4)C2)cn1`, the EC50 in the test with T-cell is 19.9 µM (active). Turning to `Cc1ccccc1Nc1nc(-c2ccccc2)c(C(=O)Nc2cccnc2)s1`, the values for the EC50 in test [4], in [5] and in test [6] were > 79.4 µM (not active), 11.6 µM (not active) and 12.6 µM (inactive), respectively.

For the compound `Cc1nn(Cc2ccccc2)c(Cl)c1C(=O)OC(C)C(=O)NCc1cccs1` (centres undefined), in [7], the EC50 was > 50 µM (inactive). For `CCOC(=O)N1CCN(C(S)=Nc2ccccc2C)CC1`, the EC50 at Troponin, cardiac muscle is > 71.4 µM (inactive).

One may read the IC50 as the concentration that gives 50% inhibition. The EC50 is the concentration that produces a half-maximal response.

The values are drawn from ChEMBL document CHEMBL1201862, “PubChem BioAssay data set” (2004).
